Assay results reported in patent publication US20240156971A1, “METHODS AND SORTILIN BINDING CONJUGATE COMPOUNDS FOR TARGETING CANCER STEM CELLS” (TRANSFERT PLUS, SOCIÉTÉ EN COMMANDITE, priority 2021, published 2024).
Square brackets hold non-standard residues; d marks the D form. Ends that are not written are not given here. Alexa Fluor 488 = Alexa Fluor 488 C5-maleimide dye; Nle = CCCC[C@H](N)C(=O)O

Tests used:
[1] = tested on: ovarian hOCSC xenografts; assay: hOCSC xenografts treated with single agents or combined with carboplatin; type: in vivo, mice; conditions: docetaxel 10 mg/kg; TH1902 23 mg/kg; paclitaxel 10 mg/kg; carboplatin 40 mg/kg; day 18
Procedure: Mice bearing ovarian hOCSC xenografts were treated with vehicle, docetaxel, paclitaxel, TH1902 or carboplatin, and other groups of mice were administered carboplatin in combination with either docetaxel, paclitaxel or TH1902. To minimize the risk of side effects resulting from combining treatments, the dosages used for each drug were reduced to the following: docetaxel 10 mg/kg; TH1902 23 mg/kg (equivalent to the docetaxel dosage); paclitaxel 10 mg/kg; carboplatin 40 mg/kg (unchanged).

[2] = target: T1, Sortilin (Homo sapiens, UniProt Q99523); assay: Uptake of TH19P01-Alexa Fluor 488 by hBCSCs in the presence of competing Sortilin ligands; type: cell-based; conditions: 200 nM fluorescent peptide, 2 h, 10 μM neurotensin, 50 μM TH19P01 or 1 nM progranulin
T1 construct: host or cells: human triple-negative breast cancer stem cells (hBCSCs)
T1 sequence (Q99523 78-831): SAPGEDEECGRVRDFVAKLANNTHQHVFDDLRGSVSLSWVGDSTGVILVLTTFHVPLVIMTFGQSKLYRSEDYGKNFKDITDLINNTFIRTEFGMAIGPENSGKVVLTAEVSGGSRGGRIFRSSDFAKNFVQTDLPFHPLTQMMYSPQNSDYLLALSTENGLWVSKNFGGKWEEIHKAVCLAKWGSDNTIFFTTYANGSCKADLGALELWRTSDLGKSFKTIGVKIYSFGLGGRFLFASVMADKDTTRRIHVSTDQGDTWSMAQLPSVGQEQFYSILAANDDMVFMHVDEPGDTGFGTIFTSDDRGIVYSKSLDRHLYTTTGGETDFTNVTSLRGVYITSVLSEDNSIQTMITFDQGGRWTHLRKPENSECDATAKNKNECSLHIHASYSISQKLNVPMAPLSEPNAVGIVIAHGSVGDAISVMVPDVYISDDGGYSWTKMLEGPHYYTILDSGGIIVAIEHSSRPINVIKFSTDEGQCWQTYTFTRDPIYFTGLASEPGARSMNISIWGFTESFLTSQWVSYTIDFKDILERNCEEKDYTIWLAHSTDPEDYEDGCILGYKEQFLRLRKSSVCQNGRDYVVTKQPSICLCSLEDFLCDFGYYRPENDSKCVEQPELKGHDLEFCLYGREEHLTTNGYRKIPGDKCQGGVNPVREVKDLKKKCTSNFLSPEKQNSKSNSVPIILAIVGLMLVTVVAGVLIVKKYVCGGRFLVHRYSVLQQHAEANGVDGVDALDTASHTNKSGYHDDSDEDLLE

[3] = tested on: hBCSCs; assay: Internalization of TH19P01-Alexa Fluor 488 by hBCSCs (flow cytometry); type: cell-based, human; conditions: 200 nM, 2 hours, vs vehicle-treated cells
Procedure: Assessment of Intracellular Fluorescence with TH19P01-Alexa Fluor™ 488. hBCSC were grown in 12-well plates in complete media for 24 hours. […] In another experiment, siScrambled- or siSORT1-transfected cells were washed with HBSS and incubated in HBSS in the presence or absence of 200 nM Alexa Fluor™ 488-labeled TH19P01. For both types of experiments, after 2 hours of incubation at 37° C., cells were washed with HBSS, trypsinized, washed again and fluorescence assessed in the FL1 channel using a C6 Accuri™ flow cytometer (BD Biosciences, San Jose, CA).

Molecule	inhibition of tumor growth, single agent [1]	decrease of intracellular fluorescence (internalization of TH19P01-Alexa Fluor 488) by competing agent [2]	further results
CC(=O)O[C@H]1C(=O)[C@@]2(C)[C@H]([C@H](OC(=O)c3ccccc3)[C@]3(O)C[C@H](OC(=O)[C@H](O)[C@@H](NC(=O)c4ccccc4)c4ccccc4)C(C)=C1C3(C)C)[C@]1(OC(C)=O)CO[C@@H]1C[C@@H]2O [Paclitaxel, paclitaxel]	practically equivalent to that seen with docetaxel		
N.N.O=C([O-])C1(C(=O)[O-])CCC1.[Pt+2] [carboplatin]	practically equivalent to that seen with docetaxel		
GVRAKAGVRN(Nle)FKSESY (GVRAKAGVRN[Nle]FKSESY) [TH19P01]		decrease significantly (p<0.01) by about half	
TH19P01-Alexa Fluor™ 488 (GVRAKAGVRN[Nle]FKSESYC(Alexa Fluor 488))			fluorescent signal in cells versus background fluorescence [3]: an order of magnitude greater than the background fluorescence
progranulin [reference compound]		decrease significantly (p<0.01) by about half	
